Measurements reported in patent US7083959B2, “Therapeutic suppression of specific immune responses by administration of oligomeric forms of antigen of controlled chemistry” (The Johns Hopkins University, priority 1983, dated 2006).
Where no end group is shown, it is not given here.

What was measured:
anti-104 antibodies = test: Share of anti-104 antibodies directed against 159, direct binding ELISA and competition assay; design: species or system mice
Description: However this peptide can be recognized by B cells since BSA conjugates raise good antibody responses to 159. Furthermore, as mentioned above, a substantial portion of antibodies raised by the 104-conjugates are directed against 159 as indicated both by direct binding in ELISA assay and by competition assay using free 159 to inhibit binding of anti-104 antibodies to 104-gelatin.

CAF1/J mice = test: Immunogenicity of monomeric and polymerized BSA or OVA without adjuvant, serum ELISA; assay type: in vivo; settings: for serum anti-BSA IgM response: day 6, injected in saline without adjuvant, FIG. 40; for IgM and IgG anti-protein responses: administered without adjuvant
Description: The molecular weight for each fraction was then determined by the use of the Model E analytical ultracentrifuge under equilibrium conditions. During this prolonged series of slow fractionation steps, molecules which were unstable to any of the many steps involved in processing, handling, or storage were fractionated away from the samples, yielding a series of preparations, each of which contained a relatively narrow range of molecular sizes of substantial time stability. These water soluble preparations were then injected into mice intra-peritoneally, without the use of any adjuvant, in order to determine their relative immunogenicity. The level of immune response was determined by measuring serum IgM or IgG antibody levels against BSA or OVA by standard solid state ELISA technique.

[1] = system: Sera obtained from (NZBxNZW) F1 mice; test: Epitope mapping: binding of lupus mouse sera to histone H2B peptides
Description: This identification process, referred to herein as “epitope mapping”, involves the synthesis of various overlapping peptide fragments which are subsequently analyzed to establish regions of antigenicity. Clearly, the study of the entire H2B structure (125 amino acids) would require a very large amount of peptide synthesis. However, it is known from studies of SLE patients and mice with lupus-like disease that removal of the H2B N-terminal region with trypsin results in a loss of antigenicity (Portanova, J. P., et. al., J. Immunol. 38, 446–457, (1987)). Attention was, therefore, focussed on the synthesis of peptides derived from this region of histone H2B.

**Q.** “N-Ac-Cys-(ε-ACA)-Glu-Ala-His^331-Ala-Glu-Ile-Asn-Glu-Ala-Gly-Arg^339-CONH2 ({Ac-Cys-ε‑ACA}-EAHAEINEAGR-NH2; listed as Mus musculus) [compound 159, represents residues 331–339 of chicken ovalbumin (OVA)]” was tested. Which “share of antibody response to 104 attributed to 159” value (anti-104 antibodies; 104 arrayed on dextran or BSA) did it give?
**A.** 40–50%

**Q.** What about the “share of 104 response competed with soluble 159” value (anti-104 antibodies; solution phase competition assays (data not shown)) of the same molecule?
**A.** up to 40%

**Q.** Which “serum anti-BSA IgM response” value (CAF1/J mice) does the source give for “BSA 70-mer: soluble highly polymerized BSA containing 70 BSA monomers, carbodiimide cross-linked (5000 kD)” here?
**A.** capable of raising IgM antibodies even at very low doses

**Q.** Which results are given for “monomeric BSA: monomeric (68 kD) bovine serum albumin [reference compound]”?
**A.** serum anti-BSA IgM response (CAF1/J mice): requires substantially higher doses; anti-BSA IgG response (CAF1/J mice; repeated injections in saline at doses up to 100 μg, FIG. 43): not very effective

**Q.** “Pro-Glu-Pro-Ala-Lys-Ser-Ala-Pro-Ala-Pro-Lys-Lys-Gly-Ser-Lys-Cys-CONH2 (PEPAKSAPAPKKGSKC-NH2) [Lupus 2′]” was tested. Which “binding of sera to peptide” value [1] did it give?
**A.** bind strongly

**Q.** How did the “binding of sera to peptide” value [1] turn out when “N-Acetyl-Ala-Pro-Lys-Lys-Gly-Ser-Lys-Lys-Ala-Val-Thr-Lys-Ala-Gln-Lys-Cys-CONH2 (Ac-APKKGSKKAVTKAQKC-NH2) [Lupus 4′]” was run?
**A.** not

**Q.** Which “binding of sera to peptide” value [1] does the source give for “N-Acetyl-Cys-Ala-Pro-Lys-Lys-Gly-Ser-Lys-Lys-Ala-Val-Thr-Lys-Ala-Gln-Lys-CONH2 (Ac-CAPKKGSKKAVTKAQK-NH2) [Lupus 3′]” here?
**A.** not

**Q.** “Polymeric BSA: BSA polymerized to itself through a water soluble carbodiimide, size fractionated” was tested. Which “IgM and IgG anti-protein responses” value (CAF1/J mice) did it give?
**A.** considerable

**Q.** Which “binding of sera to peptide” value [1] does the source give for “N-Acetyl-Cys-Lys-Ala-Val-Thr-Lys-Ala-Gln-Lys-Lys-Asp-Gly-Lys-Lys-Arg-Lys-CONH2 (Ac-CKAVTKAQKKDGKKRK-NH2) [Lupus 5′]” here?
**A.** not

B1: Polymeric OVA: OVA polymerized to itself by glutaraldehyde, size fractionated (protein, UniProt P01012 2-386, looked up)
Ovalbumin: GSIGAASMEFCFDVFKELKVHHANENIFYCPIAIMSALAMVYLGAKDSTRTQINKVVRFDKLPGFGDSIEAQCGTSVNVHSSLRDILNQITKPNDVYSFSLASRLYAEERYPILPEYLQCVKELYRGGLEPINFQTAADQARELINSWVESQTNGIIRNVLQPSSVDSQTAMVLVNAIVFKGLWEKAFKDEDTQAMPFRVTEQESKPVQMMYQIGLFRVASMASEKMKILELPFASGTMSMLVLLPDEVSGLEQLESIINFEKLTEWTSSNVMEERKIKVYLPRMKMEEKYNLTSVLMAMGITDVFSSSANLSGISSAESLKISQAVHAAHAEINEAGREVVGSAEAGVDAASVSEEFRADHPFLFCIKHIATNAVLFFGRCVSP
modifications: glutaraldehyde self-polymerized
notes: OVA polymerized to itself by glutaraldehyde, size fractionated
**Q.** With B1 as the molecule, how does the “IgM and IgG anti-protein responses” value (CAF1/J mice) read?
**A.** considerable
